{
  "source": "ChEMBL document CHEMBL5537165",
  "about": "“Hepatitis C: The Story of a Long Journey through First, Second, and Third Generation NS3/4A Peptidomimetic Inhibitors. What Did We Learn?” (J Med Chem, 2024)",
  "key": {"[1]": {"biological_target": "T1, Non-structural protein 4b (Hepacivirus hominis, UniProt F5B4I0)", "T1 sequence (F5B4I0 whole entry)": "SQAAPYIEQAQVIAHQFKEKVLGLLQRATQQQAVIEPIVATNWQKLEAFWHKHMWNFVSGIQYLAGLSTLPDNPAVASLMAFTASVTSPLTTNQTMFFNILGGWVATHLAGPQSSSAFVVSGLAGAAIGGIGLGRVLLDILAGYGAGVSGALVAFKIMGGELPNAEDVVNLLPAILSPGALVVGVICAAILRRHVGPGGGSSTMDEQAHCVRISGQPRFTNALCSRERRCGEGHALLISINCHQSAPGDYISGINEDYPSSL", "test": "Inhibition of full length Hepatitis C virus genotype 1b NS4B expressed in Escherichia coli"}, "[2]": {"biological_target": "Replicase polyprotein 1ab (Severe acute respiratory syndrome coronavirus 2, UniProt P0DTD1)", "test": "Inhibition of SARS-CoV-2 3CL protease by FRET assay"}, "[3]": {"biological_target": "T1, Non-structural protein 4b", "test": "Binding affinity to Hepatitis C virus genotype 3a NS4B assessed as inhibition constant"}, "[4]": {"biological_target": "T1, Non-structural protein 4b", "test": "Binding affinity to full length Hepatitis C virus genotype 1b NS4B expressed in Escherichia coli assessed as inhibition constant"}, "[5]": {"test": "Inhibition of Hepatitis C virus NS3 protease", "design": "species or system Hepacivirus hominis"}, "SARS-CoV-2": {"test_system": "SARS-CoV-2", "test": "Antiviral activity against SARS-CoV-2 infected in human Huh-7 cells assessed as reduction in viral growth", "type": "functional, organism-based", "details": "Severe acute respiratory syndrome coronavirus 2, Huh-7"}, "[6]": {"biological_target": "T1, Non-structural protein 4b", "test": "Inhibition of Hepatitis C virus genotype 1a NS4B"}, "[7]": {"test": "Half life in Beagle dog at 5 mg/kg, po by LC-MS/MS analysis", "type": "ADME, organism-based, Canis lupus familiaris", "details": "in vivo"}, "[8]": {"test": "AUC in Sprague-Dawley rat at 2 mg/kg, po", "type": "ADME, organism-based", "details": "in vivo"}, "[9]": {"test": "Half life in Sprague-Dawley rat at 5 mg/kg, po by LC-MS/MS analysis", "type": "ADME, organism-based", "details": "in vivo"}, "[10]": {"test": "Oral bioavailability in Beagle dog at 2 mg/kg", "type": "ADME, organism-based, Canis lupus familiaris", "details": "in vivo"}, "[11]": {"biological_target": "T1, Non-structural protein 4b", "test": "Inhibition of Hepatitis C virus genotype 1b NS4B"}, "[12]": {"biological_target": "T1, Non-structural protein 4b", "test": "Inhibition of Hepatitis C virus genotype 3a NS4B"}, "[13]": {"biological_target": "T1, Non-structural protein 4b", "test": "Binding affinity to Hepatitis C virus genotype 1b NS4B assessed as inhibition constant"}},
  "data": [
    {"smiles": "C=C[C@@H]1C[C@]1(NC(=O)[C@@H]1C[C@@H]2CN1C(=O)[C@H](C(C)(C)C)NC(=O)OCCC/C=C/c1ccc3ccnc(c3c1)O2)C(=O)NS(=O)(=O)C1CC1", "values": [
      {"measurement": "IC50", "setting": "[1]", "result": 210, "unit": "nM"}
    ]},
    {"smiles": "C=C[C@@H]1C[C@]1(NC(=O)[C@@H]1C[C@@H](Oc2cc(-c3csc(NC(C)C)n3)nc3cc(OC)ccc23)CN1C(=O)[C@@H](NC(=O)OC1CCCC1)C(C)(C)C)P(=O)(O)O", "values": [
      {"measurement": "IC50", "setting": "[2]", "result": 0.9, "unit": "nM"}
    ]},
    {"smiles": "COc1ccc2c(O[C@@H]3C[C@H]4C(=O)N[C@]5(P(=O)(O)Cc6ccccc6)C[C@H]5CCCCCCC[C@H](NC(=O)OC5CCCC5)C(=O)N4C3)cc(-c3csc(NC(C)C)n3)nc2c1", "values": [
      {"measurement": "IC50", "setting": "[2]", "result": 6, "unit": "nM"}
    ]},
    {"smiles": "C=C[C@@H]1C[C@]1(NC(=O)[C@@H]1C[C@@H]2CN1C(=O)[C@H](C(C)(C)C)NC(=O)O[C@@H]1C[C@H]1CCCCCc1nc3ccc(OC)cc3cc1O2)C(=O)NS(=O)(=O)C1CC1", "values": [
      {"measurement": "IC50", "setting": "[1]", "result": 13, "unit": "nM"},
      {"measurement": "Ki", "setting": "[3]", "result": 0.31, "unit": "nM"},
      {"measurement": "Ki", "setting": "[4]", "result": 0.02, "unit": "nM"}
    ]},
    {"smiles": "C=C[C@@H]1C[C@]1(NC(=O)[C@@H]1C[C@@H](Oc2cc(-c3ccccc3)nc3cc(OC)ccc23)CN1C(=O)[C@@H](NC(=O)OC1CCCC1)C(C)(C)C)C(=O)O", "values": [
      {"measurement": "IC50", "setting": "[1]", "result": 14, "unit": "nM"}
    ]},
    {"smiles": "COc1ccc2c(O[C@@H]3C[C@H]4C(=O)N[C@]5(C(=O)O)C[C@H]5/C=C\\CCCCC[C@H](NC(=O)OC5CCCC5)C(=O)N4C3)cc(-c3csc(NC(C)C)n3)nc2c1", "values": [
      {"measurement": "IC50", "setting": "[5]", "result": 3000, "unit": "nM"}
    ]},
    {"smiles": "C=C[C@@H]1C[C@]1(NC(=O)[C@@H]1C[C@@H](Oc2ncc(OC)c3ccccc23)CN1C(=O)[C@@H](NC(=O)OC(C)(C)C)C(C)(C)C)C(=O)NS(=O)(=O)C1CC1", "values": [
      {"measurement": "EC50", "setting": "SARS-CoV-2", "result": 19, "unit": "nM"},
      {"measurement": "IC50", "setting": "[6]", "result": 7, "unit": "nM"}
    ]},
    {"smiles": "C=C[C@@H]1C[C@]1(NC(=O)[C@@H]1C[C@@H](Oc2nccc3ccccc23)CN1C(=O)[C@@H](NC(=O)OC(C)(C)C)C(C)(C)C)C(=O)NS(=O)(=O)C1CC1", "values": [
      {"measurement": "EC50", "setting": "SARS-CoV-2", "result": 60, "unit": "nM"},
      {"measurement": "IC50", "setting": "[6]", "result": 7, "unit": "nM"}
    ]},
    {"smiles": "Cc1cnc(C(=O)N[C@H]2CCCCC/C=C\\[C@@H]3C[C@@]3(C(=O)NS(=O)(=O)C3CC3)NC(=O)[C@@H]3C[C@@H](Oc4nc5ccccc5c5ccccc45)CN3C2=O)cn1", "values": [
      {"measurement": "half-life", "setting": "[7]", "result": 72, "unit": "min"},
      {"measurement": "AUC", "setting": "[8]", "result": 19, "unit": "µM·h"},
      {"measurement": "half-life", "setting": "[9]", "result": 24, "unit": "min"},
      {"measurement": "bioavailability", "setting": "[10]", "result": 41, "unit": "%"}
    ]},
    {"smiles": "C=C[C@@H]1C[C@]1(NC(=O)[C@@H]1C[C@]2(CCc3c(c(C)nc4ccccc34)O2)CN1C(=O)[C@@H](NC(=O)OC(C)(C)C)C(C)(C)C)C(=O)NS(=O)(=O)C1(C)CC1", "values": [
      {"measurement": "IC50", "setting": "[11]", "result": 0.033, "unit": "nM"},
      {"measurement": "IC50", "setting": "[12]", "result": 5.7, "unit": "nM"}
    ]},
    {"smiles": "C=C[C@@H]1C[C@]1(NC(=O)[C@@H]1C[C@]23CCc4c(c(nc5ccc(OC)cc45)CCCCC[C@@H]4C[C@H]4OC(=O)N[C@@H](C4(C)CCCCC4)C(=O)N1C2)O3)C(=O)NS(=O)(=O)C1(C)CC1", "values": [
      {"measurement": "IC50", "setting": "[12]", "result": 4.5, "unit": "nM"}
    ]},
    {"smiles": "C=C[C@@H]1C[C@]1(NC(=O)[C@@H]1C[C@@H](Oc2cc(-c3ccccc3)nc3cc(OC)ccc23)CN1C(=O)[C@@H](NC(=O)OC(C)(C)C)C(C)(C)C)C(=O)NS(=O)(=O)C1CC1", "values": [
      {"measurement": "EC50", "setting": "SARS-CoV-2", "result": 4, "unit": "nM"},
      {"measurement": "IC50", "setting": "[6]", "result": 1, "unit": "nM"}
    ]},
    {"smiles": "CC[C@@H]1C[C@]1(NC(=O)[C@@H]1C[C@@H]2CN1C(=O)[C@H](C(C)(C)C)NC(=O)OCC(C)(C)CCCCc1cccc3c1CN(C3)C(=O)O2)C(=O)NS(=O)(=O)C1CC1", "values": [
      {"measurement": "IC50", "setting": "[11]", "result": 3, "unit": "nM"},
      {"measurement": "Ki", "setting": "[13]", "result": 0.05, "unit": "nM"}
    ]},
    {"smiles": "COc1ccc2c(O[C@@H]3C[C@H]4C(=O)N[C@]5(C(=O)O)C[C@H]5/C=C/CCCCC[C@H](NC(=O)OC(C)(C)C)C(=O)N4C3)cc(-c3ccccc3)nc2c1", "values": [
      {"measurement": "IC50", "setting": "[5]", "result": 11, "unit": "nM"}
    ]},
    {"smiles": "Cc1nc2ccccc2c2c1O[C@]1(CC2)C[C@H]2C(=O)N[C@]3(C(=O)NS(=O)(=O)C4(C)CC4)C[C@H]3/C=C/CCCCC[C@H](NC(=O)OC(C)(C)C)C(=O)N2C1", "values": [
      {"measurement": "IC50", "setting": "[11]", "result": 0.013, "unit": "nM"},
      {"measurement": "IC50", "setting": "[12]", "result": 0.7, "unit": "nM"}
    ]},
    {"smiles": "C=C[C@H]1C[C@]1(NC(=O)[C@@H]1C[C@@H]2CN1C(=O)[C@H](C(C)(C)C)NC(=O)OCCC/C=C/c1cccc3c1CN(C3)C(=O)O2)C(=O)NS(=O)(=O)C1CC1", "values": [
      {"measurement": "IC50", "setting": "[1]", "result": 7, "unit": "nM"},
      {"measurement": "Ki", "setting": "[4]", "result": 0.05, "unit": "nM"}
    ]}
  ]
}
